Experimental findings from PubChem BioAssay (NCI) are described below.

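Where inhibition never reached the appropriate level, the endpoint shown equals the highest concentration tested. Otherwise, values were interpolated linearly from a five-concentration, 48-hour dose response in 96-well plates. At the TGI there is no net growth.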

Common to all, as to assay: NCI anticancer screen, dose series, 48 h
Test [1] deals with 786-0 renal.
In test [2] the test system is A549 NSCLC.
The test system of test [3] is CCRF-CEM leukemia.
Test [4] concerns HCC-2998 colon.
Test [5] deals with HOP-62 NSCLC.
The subject of test [6] is IGROV1 ovarian.
Test [7] deals with MALME-3M melanoma.
The test system of test [8] is MDA-MB-231 breast.
The test system of test [9] is NCI-H23 lung.
For test [10], the system named is NCI-H460 lung.
Test [11] has as its system RPMI-8226 leukemia.
Test [12] concerns SF-268 CNS.
Test [13] relates to SK-MEL-5 melanoma.
For test [14], the system named is SNB-75 CNS.
For test [15], the system named is SW-620 colon.
The subject of test [16] is UACC-257 melanoma.
For test [17], the system named is HL-60(TB) leukemia.

For `C#C[C@@H](OC(=O)c1ccc([N+](=O)[O-])cc1)[C@@H]1C[C@H]2O[C@@H]([C@H](C/C=C/CC)OC(=O)c3ccc([N+](=O)[O-])cc3)C[C@H]2O1`, the TGI in [1], in [2], in [3], in test [4], in [5] and in [6] was more than 100 µM in each case. Besides, the TGI in [7], in test [8], in [9], in test [10], in test [11] and in test [12] was more than 100 µM throughout. For the same compound, the TGI in test [13], in test [14], in [15] and in test [16] was more than 100 µM in each case.
For the compound `COc1ccc(-c2n[nH]c3nc4ccccc4n3c2=O)cc1`, the TGI in test [1], in [2], in test [3], in test [4], in test [17] and in test [5] was more than 100 µM throughout. Also, the TGI in test [6], in test [7], in test [8], in [9], in test [10] and in test [12] was more than 100 µM throughout. Also, the TGI in [13], in [14], in test [15] and in test [16] was more than 100 µM in each case.
Regarding `O=C1C2CCCCC2C(=O)N1n1c(Cc2ccccc2)n[nH]c1=O` (stereo not given), the TGI in test [1], in [2], in test [3], in test [4], in test [5] and in test [6] was more than 100 µM in each case. The TGI in [7], in [8], in test [9], in test [10], in test [11] and in test [12] was more than 100 µM each time. Besides, the TGI in test [13], in [14], in test [15] and in test [16] was more than 100 µM each time.
As to `COC(=O)C1=C(C(=O)OC)N(c2ccncc2)C(c2ccco2)=CC1c1ccccc1[N+](=O)[O-]` (stereo not given), the TGI in [1] is 2.94 µM; in [2], 31.3 µM; in [3], 7.43 µM; in test [4] it was 3.7 µM; in [17], 6.06 µM; in [5] it was more than 46.2 µM. In addition, the TGI in [6] is 4.19 µM; in [7] it was 18.7 µM; in test [8], 27.5 µM; in test [9], 29.8 µM; in [10], 14.7 µM; in test [11], 5.69 µM. The TGI in test [12] turned out to be 20.8 µM; in test [14], 16.3 µM; in [16], 4.25 µM.
As for `CC(=S)NC=C(C(N)=O)C(N)=O`, the TGI in [1], in test [2], in test [3], in [4], in test [17] and in [5] was more than 100 µM in each case. Besides, the TGI in [6], in [7], in test [8], in test [9], in test [11] and in test [12] was more than 100 µM throughout. Besides, the TGI in test [13], in test [14], in test [15] and in test [16] was more than 100 µM each time.
For the compound `OCCCN=C1N=C(Cl)/C(=C\c2ccccc2)N1`, the TGI in test [1], in test [2], in test [3], in test [4], in test [17] and in test [6] was more than 100 µM each time. In addition, the TGI in test [7], in [8], in test [9], in test [11], in test [12] and in [13] was more than 100 µM in each case. Moreover, the TGI in test [14], in [15] and in test [16] was more than 100 µM throughout.
For the compound `CN1C(CC(O)c2ccccc2)CCCC1CC(O)(c1ccccc1)c1ccccc1` (stereo not given), the TGI in test [1] came to 29.1 µM; in test [2], 50 µM; in test [3] it was 58.1 µM; in [4], 37.8 µM; in test [17], 41.8 µM; in test [5], 27.6 µM. The TGI in [6] is 33.1 µM; in test [7], 33.8 µM; in test [8], 48.8 µM; in [9], 35.8 µM; in test [11], 41.1 µM; in [12] it was 43.7 µM. Moreover, the TGI in test [13] worked out at 31 µM; in test [14], 44.8 µM; in test [15], 39 µM; in [16], 33.4 µM.
On to `O=C1c2ccccc2C(=O)c2c1sc1nc3ccccc3n21`, for which the TGI in test [1] is 4.46 µM; in test [2], 25.1 µM; in test [3], 5.48 µM; in test [4], 3.79 µM; in test [17], more than 100 µM; in [6] it was 6.34 µM. Also, the TGI came to 1.6 µM in [7]; 9.12 µM in test [8]; 3.74 µM in test [9]; 3.66 µM in [10]; 5.26 µM in [11]; 3.9 µM in test [12]. In addition, the TGI in test [13] is 43.3 µM; in test [14] it was 46.1 µM; in test [16] it was 3.64 µM.
